From patent publication US11857663B2, “Stable silk protein fragment compositions” (Evolved By Nature, Inc., priority 2013, dated 2024)

Assay: HPLC chromatograms of samples comprising vitamin C (degradation products)
Format: physicochemical
Details: after 1 hour at ambient conditions without chemical stabilization
Protocol: FIGS. 36A and 36B show two HPLC chromatograms from samples comprising vitamin C. […] No degradation products were visible. FIG. 59 is a table summarizing the vitamin C concentration in silk protein fragment-films (2% silk films air dried at RT) of the present disclosure. In FIG. 59 processing conditions included 100° C. extraction for 20 min, RT rinse, LiBr in 60° C. oven for 4-6 hours. FIG. 60 is arable summarizing the stability of vitamin C in chemically stabilized solutions. FIGS. 89A-89B are tables summarizing vitamin C stability in SPF gels without chemical stabilizers as compared to chemically stabilized vitamin C in competitive anti-aging skincare products. […] Without wishing to be bound by theory, it appears there is a relationship between vitamin C concentration, silk concentration, and gelation. An increase in vitamin C at a given concentration of silk will result in a longer time to gelation or inhibit gelation. This may be due to the vitamin C molecule physically blocking interaction between silk protein fragments or cross-linking of silk protein.

For `O=C1O[C@H]([C@@H](O)CO)C(O)=C1O` [vitamin C, L-ascorbic acid], the “degradation products of vitamin C” value was “degradation products are visible”.
